“Also recorded” adds a separate entry of the source. Non-standard residues stand in square brackets, D forms with d. *: point of attachment. Cholesteryloxycarbonyl = CC(C)CCC[C@@H](C)[C@H]1CC[C@H]2[C@@H]3CC=C4C[C@@H](OC(=O)*)CC[C@]4(C)[C@H]3CC[C@]12C; mPEG = not defined here; Aib = CC(C)(N)C(=O)O; βAla = NCCC(=O)O
Tests used:
[1] = system: PC3-PSMA cells; experiment: Binding, uptake and co-localization of fluorophore-labeled aptamers (confocal microscopy, flow cytometry); type: cell-based; details: for internalization by cells: AF488-A9, DY650-E07; for colocalization in endosomes: aptamers combined, co-incubation 1 h
Procedure: To create targeted binary cytotoxins that selectively kill PSMA+/EGFR+ prostate cancer cells, the agents both accumulate in the same endosomal compartments.
Panels B-D show fluorescence micrographs of AF488-labled anti-PSMA apamer (Panel B) and a Dy650-labeled anti-EGFR aptamer (Panel C) following co-incubation with PC3-PSMA cells for 1 h. […] The binary agents are designed to selectively kill PSMA+/EGFR+ prostate cancer cells through the mechanism proposed here both accumulate in common endosomal compartments.

[2] = system: SKBR3 breast cancer cells; experiment: Release of disulfide-linked fluorophore from EGF or Herceptin conjugates, confocal microscopy; type: cell-based; details: fluorophore linked via disulfide to Herceptin or EGF, ED86 at 10-fold higher concentration
Procedure: In the middle panels, a non-targeted endosome disruptive peptide (ED86) was added. In the bottom panels, a targeted cholesterol modified endosome disruptive peptide (ED108) was added. […] In conjunction with our previous studies of disulfide-linked colchinol conjugates (see provisional application), these studies provide evidence that targeting of two distinct cell surface entities (e.g., two receptors or a receptor and membrane) with a cytotoxic conjugate and an endosome disruptive peptide can confer a synthetic lethal-type effect against cancer cell lines.

[3] = system: SKBR3 breast cancer cells
Procedure: Cellular viability was analyzed by flow cytometry after 72 h.

Row | Substance | internalization by cells [1] | colocalization in endosomes [1] | release of disulfide-linked fluorophore into cytoplasm [2] | effect on cytotoxicity of the Herceptin-colchinol methyl ether disulfide conjugate [3]
1 | A9: PSMA-binding aptamer, 2′F RNA (GGGACCGAAAAAGACCUGACUUCUAUACUAAGUCUACGUUCCC; 2'-fluoro modified RNA, pattern not given here) [Compound A9] | internalized by PC3-PSMA cells | colocalize in endosomes |  | 
2 | H2N-(Aib)4-(Trp)2-Ala-Trp-Tyr-(Pro)2-Val-Val-CONH2 (H-[Aib][Aib][Aib][Aib]WWAWYPPVV-NH2; SMILES CC(C)[C@H](NC(=O)[C@@H](NC(=O)[C@@H]1CCCN1C(=O)[C@@H]1CCCN1C(=O)[C@H](Cc1ccc(O)cc1)NC(=O)[C@H](Cc1c[nH]c2ccccc12)NC(=O)[C@H](C)NC(=O)[C@H](Cc1c[nH]c2ccccc12)NC(=O)[C@H](Cc1c[nH]c2ccccc12)NC(=O)C(C)(C)NC(=O)C(C)(C)NC(=O)C(C)(C)NC(=O)C(C)(C)N)C(C)C)C(N)=O) [ED86] |  |  | release was not observed | 
3 | E07: EGFR-binding aptamer, 2′F RNA (GGACGGAUUUAAUCGCCGUAGAAAGCAUGUCAAAGCCGGAACCGUCC; 2'-fluoro modified RNA, pattern not given here) [Compound E07] | internalized by PC3-PSMA cells | colocalize in endosomes |  | 
4 | Cholesterol carbamate-(βAla)2-(Glu)2-mPEG-(βAla)4-(Aib)4-(Trp)2-Ala-Trp-Tyr-(Pro)2-Val-Val-CONH2 (Cholesteryloxycarbonyl-[βAla][βAla]EE[mPEG][βAla][βAla][βAla][βAla][Aib][Aib][Aib][Aib]WWAWYPPVV-NH2; reading uncertain) [ED108] |  |  | Release of the fluorophore from EGF or Herceptin into the cytosol and nucleus was observed; also recorded: release of a disulfide-linked fluorophore from the antibody Herceptin into the cytoplasm | synergistically enhances cytotoxicity
